Test results: patent US20040259932A1, “Method and compound to reduce the incidence of diabetes in a subject with chronic heart failure” (priority 2003, published 2004)
“Also recorded” adds a separate entry of the source.

Key:
[1] = test system: patients with hypertension; conditions: cited from earlier work; for patients who developed diabetes: losartan compared with atenolol
[2] = test system: Elderly; conditions: candesartan compared with placebo; nonsignificant; cited from earlier work
[3] = test system: hypertensive population; conditions: captopril compared with a β-blocker or a diuretic; cited from earlier work
[4] = compared with metoprolol; cited from earlier work
[5] = test system: hypertensive rats; conditions: cited from earlier work
[6] = test system: obese, hypertensive, and dyslipidemic patients; conditions: given for 12 weeks; cited from earlier work
[7] = test system: patients with left ventricular dysfunction; test: Retrospective analysis of Montreal Heart Institute patients of the SOLVD trials: new-onset diabetes (FPG≧126 mg/dL at 2 visits); format: in vivo, human
Text: The patients from the Montreal Heart Institute who were randomized in the SOLVD trials were included in this study. SOLVD was a multicenter, double-blind, randomized, placebo-controlled trial that assessed the effect of the ACE inhibitor enalapril on survival in patients with left ventricular dysfunction (ejection fraction≦35%). The details of the trial have been described elsewhere.^12 Briefly, the prevention trial included 4228 patients with asymptomatic left ventricular dysfunction, and the treatment trial randomized 2569 patients with congestive heart failure from June 1986 to August 1991. Patients were randomized to enalapril (5 to 20 mg/day) or placebo. Exclusion criteria included age >80 years, unstable angina pectoris, myocardial infarction in the previous month, severe pulmonary disease, renal insufficiency (creatinine level>177 μmol/L [2 mg/dL]), and intolerance to ACE inhibitor or current ACE inhibitor use. Follow-up visits were scheduled 2 and 6 weeks after randomization and every 4 months until the end of the study, for a mean follow-up of 3.4 and 3.1 years for the treatment and prevention trials, respectively.
Baseline characteristics, past medical history, and medication profiles at the time of enrolment into the SOLVD trials were obtained from the SOLVD databases. Fasting plasma glucose (FPG) was not collected for research purposes in the SOLVD trials. However, follow-up of patients in SOLVD involved regular blood samples, including FPG, at almost every research visit. Accordingly, the medical file of each patient was reviewed, and FPG results were collected. Chart reviewers were blinded to treatment allocation.
A diagnosis of new onset diabetes during the follow-up period was defined according to the American Diabetes Association criteria^13 as a FPG≧126 mg/dL (7.0 mmol/L) at 2 different visits. For the purpose of the present study, the visits in which FPG≧126 occurred during infection, trauma, or acute myocardial infarction were not included.
Participants with diabetes at baseline (history of diabetes or FPG≧126 mg/dL at screening visit) were excluded. The study population was further divided among patients with impaired FPG at baseline (110 mg/dL[6.1 mmol/L]≦FPG<126mg/dL [7.0 mmol/L]) and those with normal FPG at baseline (FPG<110 mg/dL).
The baseline characteristic of the 2 groups were compared using Student's t test for continuous variables and the X^2 test for categorical variables. Incidence of diabetes in the 2 groups was compared with the X^2 test. Time to occurrence of diabetes during the follow-up was analyzed with Kaplan-Meier curves and compared with the log-rank test. To analyze the effect of the treatment (enalapril) on development of diabetes, a Cox regression analysis was used to take into account the effect of potential confounding baseline variables (age, sex, current smoking, history of hypertension, and weight) and time-dependent variables (systolic blood pressure; diastolic blood pressure; and use of β-blockers, diuretics, calcium-channel blockers, antiplatelet agents, or antiarrhythmics). Cox proportional-hazard models were performed for each variable, with treatment (enalapril) forced in all models. Variables with a P≦0.2 were included in a multivariate Cox proportional hazard model. […] Subgroup analyses were conducted with the X^2 test. In the particular subgroup of patients with impaired FPG at baseline, Kaplan-Meier curves were performed. Preliminary assumptions were verified before all analyses. P<0.05 was considered significant. All analyses were performed using SAS version 8.2 (SAS Institute, Inc).

[8] = test system: high-risk patients with no evidence of left ventricular dysfunction; conditions: cited from earlier work

CC(C)NCC(O)COc1ccc(CC(N)=O)cc1 (stereo not drawn) [atenolol]
patients who developed diabetes [1]: 8%

CCOc1nc2cccc(C(=O)O)c2n1Cc1ccc(-c2ccccc2-c2nnn[nH]2)cc1 [candesartan]
relative reduction in the incidence of diabetes [2]: 20%

C[C@H](CS)C(=O)N1CCC[C@H]1C(=O)O [captopril]
relative risk of developing diabetes (RR) [3]: 0.86

COc1ccccc1OCCNCC(O)COc1cccc2[nH]c3ccccc3c12 (stereo not drawn) [carvedilol]
effect on insulin sensitivity [4]: favorable effect on insulin sensitivity

CCOC(=O)[C@H](CCc1ccccc1)N[C@@H](C)C(=O)N1CCC[C@H]1C(=O)O [enalapril]
insulin sensitivity [5]: improved insulin sensitivity
insulin sensitivity [6]: improved insulin sensitivity
probability of remaining free from diabetes during follow-up ([7]; Kaplan-Meier, enalapril vs placebo, P<0.0001, FIG. 1): significantly higher
New cases of diabetes, % ([7]; Prevention arm of the trial (n = 198)): 6.0%
Absolute Risk Reduction ([7]; Prevention arm of the trial (n = 198), enalapril vs placebo): 13.4%
New cases of diabetes, % ([7]; Treatment arm of the trial (n = 93)): 5.7%
Absolute Risk Reduction ([7]; Treatment arm of the trial (n = 93), enalapril vs placebo): 24.3%
relative risk [RR] of new-onset diabetes ([7]; enalapril vs placebo, total population): 0.26
New cases of diabetes, % ([7]; impaired FPG at baseline, IFG (n = 55)): 3.3%
Absolute Risk Reduction ([7]; impaired FPG at baseline, IFG (n = 55), enalapril vs placebo): 45%
Absolute Risk Reduction ([7]; impaired FPG at baseline, IFG (n = 55), enalapril vs placebo, listed as Enalapril): 44.7%
Hazard Ratio for development of diabetes ([7]; multivariate analysis, Cox regression model, 95% confidence intervals 0.10 to 0.46): 0.22
New cases of diabetes, % ([7]; normal FPG at baseline, NFG (n = 236)): 6.6%
Absolute Risk Reduction ([7]; normal FPG at baseline, NFG (n = 236), enalapril vs placebo): 10.7%
risk of developing diabetes (in words) ([7]; patients with left ventricular systolic dysfunction): markedly reduced the risk of developing diabetes; also recorded: markedly reduces the risk of developing diabetes mellitus
New cases of diabetes, % ([7]; total population (n = 291), enalapril 5 to 20 mg/day, mean follow-up 2.9 years): 5.9%
Absolute Risk Reduction ([7]; total population (n = 291), enalapril vs placebo): 16.5%
number of patients to treat to prevent one new case of diabetes ([7]; treated for 2.9 years): 6 patients

CCCCc1nc(Cl)c(CO)n1Cc1ccc(-c2ccccc2-c2nn[nH]n2)cc1 [losartan]
patients who developed diabetes [1]: 6%
RR of developing diabetes ([1]; losartan vs atenolol): 0.75

CCOC(=O)[C@H](CCc1ccccc1)N[C@@H](C)C(=O)N1[C@H](C(=O)O)C[C@@H]2CCC[C@@H]21 [ramipril]
RR of developing diabetes ([8]; ramipril vs placebo): 0.66
incidence of diabetes ([8]; treatment period of 4.5 years): 3.6%
reduction of the relative risk of developing diabetes ([8]; treatment period of 4.5 years, ramipril vs placebo): 34%
